The values below come from article PMC5735979, “Total Coumarins from Hydrangea paniculata Show Renal Protective Effects in Lipopolysaccharide-Induced Acute Kidney Injury via Anti-inflammatory and Antioxidant Activities” (Frontiers in Pharmacology, 2017).

A short description of series [1]: Pharmacokinetics study after single oral dose of HP. In kind it is in vivo, C57BL/6 mice. The following applies: male, C57BL/6, mouse, in vivo, mice, n = 5. How it is done: All of the animals were fasted for 12 h before receiving HP and were then allowed to eat for 4 h after administration. The dosing solutions used for the animal studies were prepared by dissolving the required amounts of HP in distilled water. […] The plasma was separated and stored at 2–8°C until analysis. […] Louis, MO, USA) and then mixed with 180 μL of acetonitrile (Merck, Darmstadt, Germany) to precipitate protein. After centrifugation, aliquots (10 μL each) of the supernatant were used for analysis. […] The mobile phase consisted of solvent A [0.1% formic acid (Dikma Technologies, Inc., CA, USA) in water] and solvent B [0.1% formic acid in methanol (Merck)]. The analytes were eluted at a flow rate of 0.2 mL/min, with the following gradient elution: from 0 to 0.6 min, 20% B; linear increase to 95% B in 0.2 min; 95% B for 4 min, decrease to 20% B in 0.2 min; and stabilization at initial conditions for 6 min. The mass spectrometer was set for multiple reaction monitoring and was operated in a positive-ion mode with an electrospray ionization source. Nitrogen was used as the curtain gas and the collision gas. The ion-spray voltage was set at 5,500 V, and the gas temperature at 500°C.

Series [2] has as its system streptozotocin-induced diabetic nephropathy. Details: method as in Zhang et al., 2012. The following applies: ref Zhang et al., 2012; cited from earlier work.
In series [3] the test system is cationized BSA-induced membranous glomerulitis. Details: method as in Zhang et al., 2013. The note with it: ref Zhang et al., 2013; cited from earlier work.
Where [4] appears, read: plasma, single oral dose of 50 mg/kg HP.

What is called half-life is how long it takes for the measured level to halve. Low values mean rapid decline, high ones slow decline. For orientation: AUC(0-inf) means total exposure, with the tail of the curve extrapolated. Read a low AUC(0-inf) as low exposure. In general, AUC(0-t) refers to exposure summed from dosing to a finite time, without extrapolation to infinity. One may read the Cmax as the peak of the concentration-time curve. For orientation: Tmax means the time from dosing to the highest level.

Turning to `O=c1ccc2ccc(O[C@@H]3O[C@H](CO)[C@@H](O)[C@H](O)[C@H]3O)cc2o1` [Skimmin, skimmin], the concentration at 0.08 h in series [1] (0.08 h after single oral dose of 50 mg/kg HP, mean ± SD, read-out: Blood drug concentration) was found to be 7.5 ± 2.94 µM. Besides, the concentration at 0.25 h in series [1] (0.25 h after single oral dose of 50 mg/kg HP, mean ± SD, read-out: Blood drug concentration) is 14.2 ± 3.71 µM. For the same compound, the concentration at 0.5 h in series [1] (0.5 h after single oral dose of 50 mg/kg HP, mean ± SD, read-out: Blood drug concentration) is 12.6 ± 2.12 µM. Further, the concentration at 1 h in series [1] (1 h after single oral dose of 50 mg/kg HP, mean ± SD, read-out: Blood drug concentration) amounted to 7.41 ± 1.53 µM. Moreover, in series [1] (1.5 h after single oral dose of 50 mg/kg HP, mean ± SD, read-out: Blood drug concentration), the concentration at 1.5 h stood at 4.44 ± 0.89 µM. Further, in series [1] (2 h after single oral dose of 50 mg/kg HP, mean ± SD, read-out: Blood drug concentration), the concentration at 2 h stood at 3.64 ± 0.94 µM. The concentration at 3 h in series [1] (3 h after single oral dose of 50 mg/kg HP, mean ± SD, read-out: Blood drug concentration) stood at 2.37 ± 3.51 µM. Besides, the concentration at 4 h in series [1] (4 h after single oral dose of 50 mg/kg HP, mean ± SD, read-out: Blood drug concentration) turned out to be 1.16 ± 1.11 µM. In addition, the concentration at 8 h in series [1] (8 h after single oral dose of 50 mg/kg HP, mean ± SD, read-out: Blood drug concentration) was found to be 0.17 ± 0.22 µM. The concentration at 12 h in series [1] (12 h after single oral dose of 50 mg/kg HP, mean ± SD, read-out: Blood drug concentration) amounted to 0.05 ± 0.02 µM. Further, in series [1] (elimination half-life, plasma, single oral dose of 50 mg/kg HP), the half-life is 1.55 h. In addition, in series [1] (setting [4]), the area under the curve AUC(0-inf) stood at 23.4 µM·h, the area under the curve AUC(0-t) was found to be 23.3 µM·h, the highest concentration (Cmax) was 14.2 µM and the Tmax turned out to be 0.25 h. Also, the MRT last in series [1] (plasma, single oral dose of 50 mg/kg HP, read-out: MRT(0−t)) amounted to 1.75 h. The MRT inf in series [1] (plasma, single oral dose of 50 mg/kg HP, read-out: MRT(0−∞)) is 1.81 h. Moreover, the “progression of streptozotocin-induced diabetic nephropathy” value in series [2] is “could slow the progression”. In addition, the “progression of cationized BSA-induced membranous glomerulitis” value in series [3] is recorded as “could slow the progression”.
